Data as given in PubChem BioAssay AID330 (DTP/NCI, 2004).
Values joined by “and” are separate entries in the source; they are usually repeats but may differ in a detail not shown here. Equal entries are not always repeated. Toxic doses and inconclusive results are not listed.

System: P388 leukemia ip, CD2F1 mice, survival T/C
Assay: NCI In Vivo Anticancer Drug Screen. Data for tumor model P388 Leukemia (intraperitoneal) in CD2F1 (CDF1) mice
Settings: endpoint: median survival time, higher = longer survival
Procedure, shortened: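 Mice carrying the transplanted tumor received test compound or vehicle. Survival was recorded in each group, and the value is the treated-group measurement divided by that of the vehicle-treated control group.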

[1] = dose: 50.0 mg/kg/injection, schedule: Q01DX005 (ip), vehicle: Klucel (hydroxypropylcellulose) (HPC)
[2] = dose: 100.0 mg/kg/injection, schedule: Q01DX005 (ip), vehicle: Klucel (hydroxypropylcellulose) (HPC)
[3] = dose: 50.0 mg/kg/injection, schedule: Q01DX009 (ip), vehicle: saline with Tween-80
[4] = dose: 100.0 mg/kg/injection, schedule: Q01DX009 (ip), vehicle: saline with Tween-80
[5] = dose: 200.0 mg/kg/injection, schedule: Q01DX009 (ip), vehicle: saline with Tween-80
[6] = dose: 50.0 mg/kg/injection, schedule: Q01DX009 (ip), vehicle: saline
[7] = dose: 100.0 mg/kg/injection, schedule: Q01DX009 (ip), vehicle: saline
[8] = dose: 200.0 mg/kg/injection, schedule: Q01DX009 (ip), vehicle: saline
[9] = dose: 200.0 mg/kg/injection, schedule: Q01DX005 (ip), vehicle: Klucel (hydroxypropylcellulose) (HPC)
[10] = dose: 100.0 mg/kg/injection, schedule: Q01DX001 (ip), vehicle: Klucel (hydroxypropylcellulose) (HPC)

OCC1OC2OC3C(CO)OC(OC4C(CO)OC(OC5C(CO)OC(OC6C(CO)OC(OC7C(CO)OC(OC1C(O)C2O)C(O)C7O)C(O)C6O)C(O)C5O)C(O)C4O)C(O)C3O (stereo not given) (tested in a mixture with another compound)
T/C (dose: 3.12 mg/kg/injection, schedule: Q01DX009 (ip), vehicle: water): 105 % of control
T/C (dose: 6.25 mg/kg/injection, schedule: Q01DX009 (ip), vehicle: water): 108 % of control
T/C (dose: 12.5 mg/kg/injection, schedule: Q01DX009 (ip), vehicle: water): 105 % of control
T/C (dose: 25.0 mg/kg/injection, schedule: Q01DX009 (ip), vehicle: water): 122 % of control and 111 % of control and 115 % of control
T/C (dose: 50.0 mg/kg/injection, schedule: Q01DX009 (ip), vehicle: water): 109 % of control and 111 % of control and 123 % of control
T/C (dose: 200.0 mg/kg/injection, schedule: Q01DX009 (ip), vehicle: water): 164 % of control
T/C (dose: 400.0 mg/kg/injection, schedule: Q01DX009 (ip), vehicle: water): 250 % of control

CCC(C)(C)c1ccc(OCCCCNC(=O)c2ccc3ccccc3c2O)c(C(C)(C)CC)c1
T/C (dose: 60.0 mg/kg/injection, schedule: Q01DX005 (ip), vehicle: Klucel (hydroxypropylcellulose) (HPC)): 90 % of control
T/C (dose: 120.0 mg/kg/injection, schedule: Q01DX005 (ip), vehicle: Klucel (hydroxypropylcellulose) (HPC)): 89 % of control
T/C (dose: 240.0 mg/kg/injection, schedule: Q01DX005 (ip), vehicle: Klucel (hydroxypropylcellulose) (HPC)): 86 % of control

CCOC(=O)CCCCCCNC(=S)N1c2c(nc(N)[nH]c2=O)NCC1CNc1ccc(C(=O)NC(CCC(=O)O)C(=O)O)cc1 (stereo not given)
T/C (dose: 50.0 mg/kg/injection, schedule: Q01DX001 (ip), vehicle: sodium bicarbonate): 100 % of control
T/C (dose: 100.0 mg/kg/injection, schedule: Q01DX001 (ip), vehicle: sodium bicarbonate): 100 % of control
T/C (dose: 200.0 mg/kg/injection, schedule: Q01DX001 (ip), vehicle: sodium bicarbonate): 98 % of control

CC(=O)OC1CC(C)(O)Cc2cc3c(c(O)c21)C(=O)c1c(O)cc2c(c1C3=O)OC1OC2(C)C(O)C(N(C)C)C1O (stereo not given)
T/C (dose: 3.5 mg/kg/injection, schedule: Q01DX009 (ip), vehicle: other): 153 % of control
T/C (dose: 7.0 mg/kg/injection, schedule: Q01DX009 (ip), vehicle: other): 166 % of control
T/C (dose: 14.0 mg/kg/injection, schedule: Q01DX009 (ip), vehicle: other): 167 % of control

COc1cc(C2c3cc4c(cc3C(=O)C(C)C2C)OCO4)ccc1O (stereo not given)
T/C (dose: 25.0 mg/kg/injection, schedule: Q01DX005 (ip), vehicle: Klucel (hydroxypropylcellulose) (HPC)): 98 % of control
T/C [1]: 98 % of control
T/C [2]: 102 % of control
T/C (dose: 150.0 mg/kg/injection, schedule: Q01DX005 (ip), vehicle: Klucel (hydroxypropylcellulose) (HPC)): 86 % of control

O=C(CN1C(=O)c2ccccc2C1=O)NC(Cc1ccccc1)C(=O)O (stereo not given)
T/C [3]: 95 % of control
T/C [4]: 105 % of control
T/C [5]: 102 % of control
T/C (dose: 400.0 mg/kg/injection, schedule: Q01DX009 (ip), vehicle: saline with Tween-80): 95 % of control

CC(C)SC1NC(=O)N(C)C1=O (stereo not given)
T/C [3]: 100 % of control
T/C [4]: 107 % of control
T/C [5]: 100 % of control

O=[N+]([O-])c1ccc2c(c1)N=Cc1ccccc1NCCNc1ccccc1C=N2
T/C [6]: 95 % of control
T/C [7]: 87 % of control and 90 % of control
T/C [8]: 92 % of control and 93 % of control

CC(=O)C(C(=O)Nc1cccc2ccccc12)C(C)=NCC(C)N=C(C)C(C(C)=O)C(=O)Nc1cccc2ccccc12.[Cu] (stereo not given)
T/C (dose: 12.5 mg/kg/injection, schedule: Q01DX005 (ip), vehicle: saline + Tween-80 + alcohol): 110 % of control
T/C (dose: 25.0 mg/kg/injection, schedule: Q01DX005 (ip), vehicle: saline + Tween-80 + alcohol): 96 % of control
T/C (dose: 50.0 mg/kg/injection, schedule: Q01DX005 (ip), vehicle: saline + Tween-80 + alcohol): 105 % of control

[Cr+6].[NH-]CCC[NH-].[NH-]CCC[NH-].[NH-]CCC[NH-]
T/C (dose: 200.0 mg/kg/injection, schedule: Q01DX001 (ip), vehicle: saline): 95 % of control
T/C (dose: 400.0 mg/kg/injection, schedule: Q01DX001 (ip), vehicle: saline): 90 % of control

NC(=O)COC1OC(CO)C(O)C(O)C1O (stereo not given)
T/C [1]: 97 % of control
T/C [2]: 100 % of control
T/C [9]: 107 % of control

CC/C(=C(/CC)c1ccc(O)cc1)c1ccc(O)cc1
T/C (dose: 50.0 mg/kg/injection, schedule: Q01DX008 (ip), vehicle: saline with Tween-80): 101 % of control
T/C (dose: 100.0 mg/kg/injection, schedule: Q01DX008 (ip), vehicle: saline with Tween-80): 97 % of control
T/C (dose: 200.0 mg/kg/injection, schedule: Q01DX008 (ip), vehicle: saline with Tween-80): 106 % of control
T/C (dose: 400.0 mg/kg/injection, schedule: Q01DX008 (ip), vehicle: saline with Tween-80): 99 % of control

CCN(CC)Cc1c(C)[nH]c2ccc(NC(C)=O)cc2c1=O
T/C [3]: 116 % of control
T/C [4]: 114 % of control

N#CC1Oc2ccccc2N1C(=O)c1ccccc1 (stereo not given)
T/C (dose: 50.0 mg/kg/injection, schedule: Q01DX005 (ip), vehicle: saline with Tween-80): 101 % of control
T/C (dose: 100.0 mg/kg/injection, schedule: Q01DX005 (ip), vehicle: saline with Tween-80): 102 % of control
T/C (dose: 200.0 mg/kg/injection, schedule: Q01DX005 (ip), vehicle: saline with Tween-80): 90 % of control

CCOc1nc(N)nc(C)c1N=Nc1ccc(C)cc1
T/C (dose: 60.0 mg/kg/injection, schedule: Q01DX005 (ip), vehicle: Klucel + Tween-80): 110 % of control
T/C (dose: 120.0 mg/kg/injection, schedule: Q01DX005 (ip), vehicle: Klucel + Tween-80): 116 % of control
T/C (dose: 240.0 mg/kg/injection, schedule: Q01DX005 (ip), vehicle: Klucel + Tween-80): 113 % of control

C[C@@H]1CC[C@@]2(OC1)O[C@H]1C[C@H]3[C@@H]4CC(=O)C5=CC(=O)CC[C@]5(C)[C@H]4CC[C@]3(C)[C@H]1[C@@H]2C
T/C (dose: 2.25 mg/kg/injection, schedule: Q01DX005 (ip), vehicle: Klucel (hydroxypropylcellulose) (HPC)): 101 % of control
T/C (dose: 4.5 mg/kg/injection, schedule: Q01DX005 (ip), vehicle: Klucel (hydroxypropylcellulose) (HPC)): 100 % of control
T/C (dose: 9.0 mg/kg/injection, schedule: Q01DX005 (ip), vehicle: Klucel (hydroxypropylcellulose) (HPC)): 97 % of control
T/C (dose: 18.0 mg/kg/injection, schedule: Q01DX005 (ip), vehicle: Klucel (hydroxypropylcellulose) (HPC)): 89 % of control
T/C (dose: 36.0 mg/kg/injection, schedule: Q01DX005 (ip), vehicle: Klucel (hydroxypropylcellulose) (HPC)): 88 % of control

O=C(NN(Cn1c(=S)sc2ccccc21)Cn1c(=S)sc2ccccc21)c1cccc([N+](=O)[O-])c1
T/C [10]: 93 % of control
T/C (dose: 200.0 mg/kg/injection, schedule: Q01DX001 (ip), vehicle: Klucel (hydroxypropylcellulose) (HPC)): 92 % of control
T/C (dose: 400.0 mg/kg/injection, schedule: Q01DX001 (ip), vehicle: Klucel (hydroxypropylcellulose) (HPC)): 113 % of control

COc1ccc(CCNC2=C(/C=C\C(=O)O)C(=O)CC2)cc1OC
T/C (dose: 25.0 mg/kg/injection, schedule: Q01DX001 (ip), vehicle: Klucel (hydroxypropylcellulose) (HPC)): 95 % of control
T/C (dose: 50.0 mg/kg/injection, schedule: Q01DX001 (ip), vehicle: Klucel (hydroxypropylcellulose) (HPC)): 100 % of control
T/C [10]: 87 % of control and 92 % of control

Cc1cc(O)c2c(O)c(-c3ccc4cc(C)cc(O)c4c3O)ccc2c1
T/C [6]: 104 % of control
T/C [7]: 112 % of control

O=C(NC(Cc1ccc(Cl)cc1)C(=O)O)c1ccc(Br)cc1 (stereo not given)
T/C [1]: 100 % of control
T/C [2]: 96 % of control
T/C [9]: 99 % of control

CC/C(=N\NS(=O)(=O)c1ccc(C)cc1)c1ccc(Br)c(Br)c1
T/C [6]: 96 % of control
T/C [7]: 100 % of control
T/C [8]: 92 % of control

C=C(C(=O)N(C(C)C)C(C)C)C(C)CC(C)C(=O)N(C(C)C)C(C)C (stereo not given)
T/C (dose: 50.0 mg/kg/injection, schedule: Q04DX002 (ip), vehicle: Klucel (hydroxypropylcellulose) (HPC)): 99 % of control
T/C (dose: 100.0 mg/kg/injection, schedule: Q04DX002 (ip), vehicle: Klucel (hydroxypropylcellulose) (HPC)): 104 % of control
T/C (dose: 200.0 mg/kg/injection, schedule: Q04DX002 (ip), vehicle: Klucel (hydroxypropylcellulose) (HPC)): 107 % of control
T/C (dose: 400.0 mg/kg/injection, schedule: Q04DX002 (ip), vehicle: Klucel (hydroxypropylcellulose) (HPC)): 104 % of control

Cc1nc(-c2ccccc2)oc1C(N)=O
T/C (dose: 50.0 mg/kg/injection, schedule: Q01DX009 (ip), vehicle: Klucel (hydroxypropylcellulose) (HPC)): 108 % of control
T/C (dose: 100.0 mg/kg/injection, schedule: Q01DX009 (ip), vehicle: Klucel (hydroxypropylcellulose) (HPC)): 110 % of control
